Assay results as given in PMC2193167 (The Journal of Experimental Medicine, 2000).
No end group written: not given here.

How the values were obtained:
[1] = test system: normal melanocytes in AAD^+tyrosinase^+ (or AAD^−) C57BL/6 mice; conditions: mouse, in vivo
HLA-A*0201 = HLA-A*0201 (Homo sapiens, UniProt P04439, D140Y/D185E/D98H/E176V/E277Q/G131W/G231S/I119V/I121R/I166T/I218V/L300P/L318F/N151K/N90K/P208A/P217A/Q86G/Q94H/R138H/R169H/T345S); test: Class I peptide binding affinity assay

Row | Compound | vitiligo, in words [1] | IC50 (HLA-A*0201) [nM]
1 | IL-2: Proleukin (IL-2; Chiron), given alone without CTLs | vitiligo was not observed | 
2 | CSCC[C@H](NC(=O)[C@@H](NC(=O)CNC(=O)[C@H](CC(=O)O)NC(=O)[C@H](CCSC)NC(=O)[C@@H](N)Cc1ccc(O)cc1)[C@@H](C)O)C(=O)N[C@@H](CO)C(=O)N[C@@H](CCC(N)=O)C(=O)N[C@H](C(=O)O)C(C)C [YMDGTMSQV] |  | 74
3 | FMDGTMSQV [FMDGTMSQV] |  | 65
